Data as given in PubChem BioAssay (NCI).
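Results reflect a 48-hour exposure of cells in 96-well plates to compound at five concentrations. At the GI50, growth is halved. Definition used: TGI = concentration required for complete inhibition of growth.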

Tests used:
Assay in all cases: DTP human tumour cell line panel, 48 h
[1] = tested on: DU-145 prostate
[2] = tested on: T-47D breast
[3] = tested on: MOLT-4 leukemia
[4] = tested on: UACC-257 melanoma
[5] = tested on: KM12 colon
[6] = tested on: HL-60(TB) leukemia
[7] = tested on: SK-MEL-28 melanoma
[8] = tested on: A549 NSCLC
[9] = tested on: PC-3 prostate
[10] = tested on: COLO 205 colon
[11] = tested on: NCI-H226 lung
[12] = tested on: A498 renal
[13] = tested on: NCI-H522 lung
[14] = tested on: SNB-19 CNS
[15] = tested on: NCI-H23 lung
[16] = tested on: LOX IMVI melanoma
[17] = tested on: HOP-62 NSCLC
[18] = tested on: K-562 leukemia
[19] = tested on: SNB-75 CNS
[20] = tested on: MDA-MB-435
[21] = tested on: HCT-116 colon
[22] = tested on: SF-539 CNS
[23] = tested on: OVCAR-4 ovarian
[24] = tested on: OVCAR-3 ovarian
[25] = tested on: SN12C renal
[26] = tested on: RPMI-8226 leukemia
[27] = tested on: SK-MEL-2 melanoma
[28] = tested on: SF-295 CNS
[29] = tested on: BT-549 breast
[30] = tested on: SK-OV-3 ovarian
[31] = tested on: ACHN renal
[32] = tested on: UO-31 renal
[33] = tested on: MALME-3M melanoma
[34] = tested on: NCI-H460 lung
[35] = tested on: MCF7 breast
[36] = tested on: 786-0 renal
[37] = tested on: TK-10 renal
[38] = tested on: HS 578T breast
[39] = tested on: OVCAR-5 ovarian
[40] = tested on: MDA-MB-231 breast
[41] = tested on: HOP-92 NSCLC
[42] = tested on: SR leukemia
[43] = tested on: UACC-62 melanoma
[44] = tested on: HT29 colon
[45] = tested on: IGROV1 ovarian
[46] = tested on: HCC-2998 colon
[47] = tested on: SW-620 colon
[48] = tested on: HCT-15 colon
[49] = tested on: SF-268 CNS
[50] = tested on: RXF 393 renal
[51] = tested on: EKVX NSCLC
[52] = tested on: M14 melanoma
[53] = tested on: OVCAR-8 ovarian
[54] = tested on: NCI/ADR-RES ovarian
[55] = tested on: U251 CNS
[56] = tested on: SK-MEL-5 melanoma
[57] = tested on: CAKI-1 renal

`Cn1ccnc1C(=O)/C=C/c1ccc(CC(=O)Nc2cc(F)c(F)c(F)c2)cc1` was tested, and the GI50 [1] was 1.67 µM, the TGI [1] was 4.87 µM and the GI50 [2] was 1.29 µM. It also gave a TGI [2] of 8.14 µM, a GI50 [3] of 0.84 µM and a TGI [3] of 12.1 µM. It also gave a GI50 [4] of 3.59 µM, a TGI [4] of 10.1 µM and a GI50 [5] of 1.58 µM. For the same compound, the TGI [5] was 5.51 µM, the GI50 [6] was 0.716 µM and the TGI [6] was 2.45 µM. For the same compound, the GI50 [7] was 3.64 µM, the TGI [7] was 7.69 µM and the GI50 [8] was 1.57 µM. The TGI [8] was 20.2 µM, the GI50 [9] was 1.26 µM and the TGI [9] was 5.65 µM. For the same compound, the GI50 [10] was 2.53 µM, the TGI [10] was 7.08 µM and the GI50 [11] was 3.4 µM. For the same compound, the TGI [11] was 12.3 µM, the GI50 [12] was 3.58 µM and the TGI [12] was 7.65 µM. It also gave a GI50 [13] of 2.64 µM, a TGI [13] of 7.72 µM and a GI50 [14] of 2.87 µM. It also gave a TGI [14] of 6.59 µM, a GI50 [15] of 2.08 µM and a TGI [15] of 9.53 µM. The GI50 [16] was 1.03 µM, the TGI [16] was 3.79 µM and the GI50 [17] was 1.17 µM. It also gave a TGI [17] of 4.94 µM, a GI50 [18] of 0.808 µM and a TGI [18] greater than 25 µM. It also gave a GI50 [19] of 0.867 µM, a TGI [19] greater than 25 µM and a GI50 [20] of 3.36 µM. For the same compound, the TGI [20] was 10.4 µM, the GI50 [21] was 1.22 µM and the TGI [21] was 4.42 µM. For the same compound, the GI50 [22] was 1.5 µM, the TGI [22] was 4.68 µM and the GI50 [23] was 2.25 µM. The TGI [23] was greater than 25 µM, the GI50 [24] was 1.36 µM and the TGI [24] was 4.44 µM. The GI50 [25] was 1.4 µM, the TGI [25] was 8.61 µM and the GI50 [26] was 0.795 µM. It also gave a TGI [26] of 3.54 µM, a GI50 [27] of 4.22 µM and a TGI [27] of 10.6 µM. It also gave a GI50 [28] of 6.63 µM, a TGI [28] greater than 25 µM and a GI50 [29] of 1.15 µM. The TGI [29] was 4.47 µM, the GI50 [30] was 5.59 µM and the TGI [30] was greater than 25 µM. It also gave a GI50 [31] of 4.53 µM, a TGI [31] of 19.2 µM and a GI50 [32] of 1.7 µM. It also gave a TGI [32] of 4.96 µM, a GI50 [33] of 3.65 µM and a TGI [33] of 10.8 µM. The GI50 [34] was 1.49 µM, the TGI [34] was 11.8 µM and the GI50 [35] was 1.36 µM. For the same compound, the TGI [35] was 6.82 µM, the GI50 [36] was 2.44 µM and the TGI [36] was 5.5 µM. The GI50 [37] was 4.29 µM, the TGI [37] was 13.4 µM and the GI50 [38] was 10.8 µM. It also gave a TGI [38] greater than 25 µM, a GI50 [39] of 3.63 µM and a TGI [39] of 9.39 µM. For the same compound, the GI50 [40] was 4.04 µM, the TGI [40] was greater than 25 µM and the GI50 [41] was 2.59 µM. It also gave a TGI [41] of 7.44 µM, a GI50 [42] of 0.861 µM and a TGI [42] of 8.91 µM. For the same compound, the GI50 [43] was 2.14 µM, the TGI [43] was 9.59 µM and the GI50 [44] was 0.861 µM. It also gave a TGI [44] of 12.7 µM, a GI50 [45] of 1.4 µM and a TGI [45] of 8.22 µM. It also gave a GI50 [46] of 2.55 µM, a TGI [46] of 6.04 µM and a GI50 [47] of 1.46 µM. It also gave a TGI [47] of 8.98 µM, a GI50 [48] of 1.03 µM and a TGI [48] of 6.58 µM. The GI50 [49] was 1.78 µM, the TGI [49] was 9.57 µM and the GI50 [50] was 0.941 µM. It also gave a TGI [50] of 4.11 µM, a GI50 [51] of 3.51 µM and a TGI [51] of 7.41 µM. It also gave a GI50 [52] of 3.68 µM, a TGI [52] of 8.45 µM and a GI50 [53] of 1.33 µM. For the same compound, the TGI [53] was greater than 25 µM, the GI50 [54] was 1.09 µM and the TGI [54] was greater than 25 µM. For the same compound, the GI50 [55] was 0.837 µM, the TGI [55] was 3.2 µM and the GI50 [56] was 3.25 µM. It also gave a TGI [56] of 6.47 µM, a GI50 [57] of 2.27 µM and a TGI [57] of 7.54 µM.
